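A five-concentration, 48-hour dose response in 96-well plates underlies each endpoint, interpolated linearly between surrounding concentrations. The concentration for 50% growth inhibition is given as GI50. At the TGI there is no net growth.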
Columns and labels:
Assay in all cases: NCI anticancer screen, dose series, 48 h
[1] = system: SNB-78 CNS
[2] = system: KM20L2 colon
[3] = system: DMS 273 small cell lung
[4] = system: M19-MEL melanoma
[5] = system: DMS 114 small cell lung
[6] = system: BT-549 breast
[7] = system: PC-3 prostate
[8] = system: MDA-MB-231 breast
[9] = system: MDA-MB-435
[10] = system: T-47D breast

| SMILES | TGI [1] [µM] | TGI [2] [µM] | TGI [3] [µM] | TGI [4] [µM] | TGI [5] [µM] | GI50 [6] [µM] | TGI [6] [µM] | GI50 [7] [µM] | TGI [7] [µM] | GI50 [8] [µM] | TGI [8] [µM] | GI50 [9] [µM] | TGI [9] [µM] | GI50 [10] [µM] | TGI [10] [µM] |
| --- | --- | --- | --- | --- | --- | --- | --- | --- | --- | --- | --- | --- | --- | --- | --- |
| COc1cc2cc3c4c(cc(OC)c(OC)c4c2cc1OC)CCN3C(=O)CCC(=O)NCCCN(C)C | > 100 | 67 | > 100 | 55.4 | > 100 |  |  |  |  |  |  |  |  |  |  |
| COc1ccc(OC)c2c3c(ccc12)C(c1ccccc1)OC3=O (stereo not given) | 64.9 | > 100 | > 100 | > 100 | > 100 |  |  |  |  |  |  |  |  |  |  |
| COc1cccc(NC(=O)C(=O)C(C(C)=O)c2nc3ccc(Cl)cc3[nH]c2=O)c1 (stereo not given) | > 100 | > 100 | > 100 | > 100 | > 100 |  |  |  |  |  |  |  |  |  |  |
| C[C@@H]1C[C@]2(C[C@@H](C)C3[C@@H](CC4(C)[C@@H]5CCC6C(C)(C)OC(=O)C=C[C@]67C[C@@]5(CC[C@]34C)OO7)O2)OC1=O (stereo not given in full) | > 100 |  | > 100 |  | > 100 |  |  |  |  |  |  |  |  |  |  |
| FC1OC2OC1C(OCc1ccccc1)C(OCc1ccccc1)C2OCc1ccccc1 (stereo not given) | > 100 | > 100 | > 100 | > 100 | > 100 |  |  |  |  |  |  |  |  |  |  |
| S=c1nc(-c2ccnc(-c3nc(=S)[nH][nH]3)c2)[nH][nH]1 | > 100 | > 100 | > 100 | > 100 | > 100 |  |  |  |  |  |  |  |  |  |  |
| Nc1ccc(S(=O)(=O)Nc2cnc3c(Cl)cccc3n2)cc1 | 528 | > 750 | 467 | > 625 | 202 | 220 | > 750 | > 63.9 | > 750 | 78.1 | > 750 | 31.5 | > 750 | 48.2 | > 750 |
| O=C(c1ccc(Cl)cc1)C1OC12C(=O)Nc1ccccc12 (stereo not given) | 32.4 | 41.3 | 25.4 | 23.3 | 26.2 |  | 31.4 |  | 41 |  | 50.5 |  | 35.5 |  | 47.7 |
| COc1ccc(CCc2cc(OC)c(OC)c(OC)c2)cc1 | 0.0976 | 0.049 | 1.43 | > 100 | 0.323 |  | > 100 |  | > 62.6 |  | 15.7 |  | 0.0345 |  |  |
| CC(=O)C1C(=O)N(C(C)C)C[C@@H]2CCC(=O)C[C@H]12 (stereo not given in full) | > 100 |  | > 100 | > 100 | > 100 |  |  |  |  |  |  |  |  |  |  |
| CCOc1ccc(C(CN2CCOCC2)C(C)=O)cc1OC (stereo not given) | 66.8 | 35 | 23.3 | 34.1 | 34 |  |  |  |  |  |  |  |  |  |  |
| CCCCCCCCCCCCCCCCOC(=O)c1cc(O)cc(C(=O)OCCCCCCCCCCCCCCCC)c1 | > 100 | > 100 | > 100 | > 100 | > 100 |  |  |  |  |  |  |  |  |  |  |
| O=C1c2ccccc2C(=O)c2nc3ccc(Cl)cc3cc21 | > 100 | > 100 | > 100 | > 100 | > 100 |  |  |  |  |  |  |  |  |  |  |
| COC(=O)/C(=N/NC(N)=O)C(C(=O)OC)C(=O)C(=O)Nc1ccc(Cl)cc1 (stereo not given) |  | > 100 | > 100 | > 100 | > 100 |  |  |  |  |  |  |  |  |  |  |
| COc1ccc(CCN=C2CCC(C(=O)NCCc3ccc(OC)c(OC)c3)N2)cc1OC (stereo not given) | > 100 | > 100 | > 100 |  | > 100 |  |  |  |  |  |  |  |  |  |  |
| C[C@]12CC[C@H](OC3CCCCO3)CC1=CC[C@@H]1C2CC[C@]2(C)/C(=N/O)CCC12 (stereo not given in full) | 64.4 | 30.5 | 51.8 |  | 37.9 |  |  |  |  |  |  |  |  |  |  |
| COc1cc(/C=C(\C#N)C(N)=C(C#N)C#N)cc(O)c1O | > 100 | > 100 | > 100 | > 100 | > 100 |  | > 100 |  | > 100 |  | > 100 |  | > 100 |  | > 100 |
| CCOC(=O)C1COc2cc(-c3cc(=O)c4ccccc4o3)ccc2O1 (stereo not given) | > 100 | > 100 | > 100 | > 100 | > 100 |  |  |  |  |  |  |  |  |  |  |
| CCOC(=O)[C@H]1Nc2ccccc2C2c3ccccc3CC21 (stereo not given in full) | > 100 | > 100 | > 100 | > 100 | > 100 |  |  |  |  |  |  |  |  |  |  |
| CC1CC[C@]2(C(=O)O)CCC3(C)C(=CCC4[C@@]5(C)CC[C@H](OS(=O)(=O)c6ccccc6)C(C)(C)C5CC[C@]43C)[C@@H]2[C@H]1C (stereo not given in full) | > 100 |  | > 100 | > 100 | > 100 |  |  |  |  |  |  |  |  |  |  |
| Cc1ccc(NC(=O)CC(=O)N2N=C(N(CCC#N)c3cccc(C)c3)CC2c2ccccc2)cc1 (stereo not given) | > 100 | > 100 | > 100 | > 100 | > 100 |  |  |  |  |  |  |  |  |  |  |
| O=S(=O)(c1ccc(O)c(C=Nc2ccc(Cl)cc2)c1)c1ccc(O)c(C=Nc2ccc(Cl)cc2)c1 |  | > 100 | > 100 | > 100 | > 100 |  |  |  |  |  |  |  |  |  |  |
| CCCCCCCCCCCCOP(N)(=O)OCCCCCCCCCCCC | > 100 |  | > 100 | > 100 | > 100 |  |  |  |  |  |  |  |  |  |  |
| Cc1cc(Cl)cc2c1NC(=O)C2=O (tested in a mixture with another compound) | 91.1 | > 100 | > 100 | 28.8 | 72.1 |  |  |  |  |  |  |  |  |  |  |
| COc1ccc(C2CCc3cc4c(cc3/C2=N/OC(C)=O)OCO4)cc1OC (stereo not given) | > 100 | 72.3 | 78.1 | 71 | 51.9 |  |  |  |  |  |  |  |  |  |  |
| CN(C=O)/C=C/c1cc(O)ccc1O | 56.2 | > 62.4 | > 54.3 | 44.9 | > 100 |  |  |  |  |  |  |  |  |  |  |

— PubChem BioAssay (NCI)
